According to US20070179123A1, “Methods and compositions for treating diseases associated with pathogenic proteins” (priority 2005, published 2007):
In brackets after ≈: the same amount, converted by molar mass. Several values for one entry are separate records, joined by “and”; a condition that tells them apart may be missing. Identical values can stand only once.

Columns and labels:
[1] = target: PrP^Sc in RML-infected N2a cells (Mus musculus, UniProt P04925); test: cell-based; conditions: for IC50: IC50 for purging of PRP^Sc in RML-infected N2a cells
Sequence of PrP^Sc in RML-infected N2a cells (P04925 23-230 limits assumed): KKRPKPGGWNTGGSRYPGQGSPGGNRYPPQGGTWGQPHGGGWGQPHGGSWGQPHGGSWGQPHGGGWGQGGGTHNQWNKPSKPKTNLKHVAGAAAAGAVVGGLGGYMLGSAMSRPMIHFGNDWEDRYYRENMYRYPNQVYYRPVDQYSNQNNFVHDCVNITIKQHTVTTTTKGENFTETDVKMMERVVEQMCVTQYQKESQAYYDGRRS

[2] = target: amyloid peptide (Homo sapiens, UniProt P05067); test: Inhibition of amyloid fibrillogenesis, Congo Red assay
Sequence of amyloid peptide (P05067 672-713): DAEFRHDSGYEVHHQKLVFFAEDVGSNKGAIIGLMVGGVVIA

[3] = target: PrP^Sc in 22L-infected N2a cells (Mus musculus, UniProt P04925); test: cell-based; conditions: for IC50: IC50 for purging of PRP^Sc in 22L-infected N2a cells
Sequence of PrP^Sc in 22L-infected N2a cells (P04925 23-230 limits assumed): as the sequence (P04925 23-230 limits assumed) above

[4] = target: yeast prion protein Sup-NM (Saccharomyces cerevisiae, UniProt P05453); test: biochemical; conditions: for IC50: IC50 for inhibition of Sup35 yeast prion polymerization
Sequence of yeast prion protein Sup-NM (P05453 1-254 limits assumed): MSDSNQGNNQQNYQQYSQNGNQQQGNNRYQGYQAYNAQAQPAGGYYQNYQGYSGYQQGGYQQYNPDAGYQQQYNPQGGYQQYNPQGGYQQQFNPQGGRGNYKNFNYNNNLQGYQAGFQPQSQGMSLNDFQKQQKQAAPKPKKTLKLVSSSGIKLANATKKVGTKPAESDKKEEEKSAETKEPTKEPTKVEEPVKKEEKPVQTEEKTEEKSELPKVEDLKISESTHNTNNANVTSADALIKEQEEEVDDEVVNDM

[5] = tested on: yeast PSI^+ (the yeast prion protein Sup35); test: microbe, parasite or virus in culture; assay type: cell-based
[6] = target: T1, Aβ42 (Homo sapiens, UniProt P05067); test: Amyloid fibrillogenesis gel assay; assay type: biochemical; conditions: 40 μM Aβ42, 3-100 μg/ml compound, 5 days
T1 construct: 40 μM fresh Aβ42, Lanes 3-7: 40 μM Aβ42 with mefloquin
T1 sequence (P05067 672-713, species assumed): as the sequence (P05067 672-713) above
Experimental: (§1) The 40 μM solution was used in fibrillogenesis assay, as described below. The 60 μM peptide solution was undisturbed for six months and allowed to form fibrils, and was utilized in a fibril disassociation assay.
(§2) Mefloquin was dissolved in DMSO and diluted 100 fold into the final reaction mixture, keeping the DMSO concentration constant at 1% (v/v). After incubation, 10 ul of each sample was mixed with 2.5 μl of 4×SDS-sample buffer (Invitrogen), and loaded onto a precast 12% BT gel (Invitrogen). The electrophoresis was run with MES running buffer (Invitrogen) at 200V, and the gels were stained using a silverXpress silver staining kit (Invitrogen). The lane assignments are as follows: Lane 1: molecular weight markers, 2; 40 μM fresh Aβ42, Lanes 3-7: 40 μM Aβ42 with mefloquin from 0, 3, 10, 30 to 100 μg/ml. Lanes 8-12: 10 μl Aβ42 fibrils with mefloquin from 0, 3, 10, 30 to 100 μg/ml.
(§3) Gels were photographed and scanned, and the band densities was analyzed using NIH Imagequant, version 5.2 (GE Healthcare, Sunnyvale, Calif.).

[7] = target: Aβ42 fibrils (Homo sapiens, UniProt P05067); test: Fibril disassociation gel assay; assay type: biochemical; conditions: 3-100 μg/ml compound
Sequence of Aβ42 fibrils (P05067 672-713, species assumed): as the sequence (P05067 672-713) above
Experimental: as §1, §2, §3

[8] = tested on: 22L-infected N2a cells; test: Toxicity seen in 22L-infected N2a cell assay (light microscopy); assay type: cell-based, mouse; conditions: @ 10 μM
Experimental: 10 mM solutions of tafenoquine were prepared and diluted in DMSO and then into PBS prior to being introduced to the cell medium. 5 μL of solutions were added to the cell medium. DMSO concentrations in the cell media were never higher than 0.5% (v/v). After tafenoquine was added, the cells were incubated for 5 days at 37° C. in a CO2 incubator before being lysed. Prior to cell lysis, the cells were inspected by light microscopy for toxicity, bacterial contamination, and density compared to controls. After removal of the cell media, 50 μL of lysis buffer was added to each well. Lysis buffer was composed of 0.5% (w/v) Triton X-100, 0.5% (w/v) sodium deoxycholate, 5 mM Tris-HCl, pH 7.4 at 4° C., 5 mM EDTA, and 150 mM NaCl. Five minutes after adding lysis buffer, 25 μL of 0.1 mg/mL PK (Calbiochem) in TBS was added to each well and incubated at 37° C. for 50 minutes. 225 μL of 1 mM Pefabloc (Boehringer Mannheim) was then added to each well to inhibit PK activity. 250 μL of 1 mM Pefabloc was added to samples that were not PK-treated.

[9] = tested on: RML-infected N2a cells

CCC1CN2CCC1CC2[C@H](O)c1ccnc2ccc(OC)cc12 (stereo partly drawn)
IC50 [1]: 12.5 µM

COc1cc(NC(C)CCC(C)(C)N)c2nccc(C)c2c1Oc1cccc(C(F)(F)F)c1 (stereo not drawn)
IC50 [2]: 32.5 to 65 µM

COc1cc(CO)c2c(Oc3cccc(C(F)(F)F)c3)c(OC)cc(NC(C)CCCN)c2n1 (stereo not drawn) [compound 8]
IC50 [2]: ~10.4 µM

(±)-8-[(4-amino-1-methylbutyl) amino]-2,6-dimethoxy-4-methyl-5-(3-trifluoromethylphenoxy)quinoline [tafenoquine]
IC50 for purging of PRP^Sc in 22L-infected N2a cells [3]: 0.44 µg/mL
IC50 for purging of PRP^Sc in RML-infected N2a cells [1]: 0.332 µg/mL
IC50 for inhibition of Sup35 yeast prion polymerization ([4]; thioflavin T, 25° C.): 5.2 ± 1.1 µg/mL
IC50 for inhibition of induction of PSI+ ([5]; 24 h with 50 μM copper sulfate): 4.5 µg/mL

OC(c1cc(C(F)(F)F)nc2c(C(F)(F)F)cccc12)C1CCCCN1 (racemic) [mefloquine, DL-erythro-α-2-piperidyl-2,8-bis(trifluoromethyl)-4-quinolinemethanol, reference compound]
IC50 [3]: 1.27 µM and 1.2 µM
IC50 [1]: 0.5 µM
inhibition of fibrillogenesis of amyloid peptide, gel assay (in words) [6]: inhibited fibrillogenesis
inhibition at 150 µg/mL ([4]; read-out: inhibition of the polymerization of Sup-NM): ~55%
inhibition of the induction of PSI+ (in words) [5]: concentration dependent inhibition
disassociation of amyloid fibrils, gel assay (in words) [7]: increase of monomeric amyloid peptide

CCCCCCN(CCCCCC)CCCCCCNc1cc(OC)cc2c(C)ccnc12
IC50 [2]: < 11 µM

C=CC1CN2CCC1CC2[C@H](O)c1ccnc2ccc(OC)cc12 (stereo partly drawn)
IC50 [1]: 6 µM

COc1cc(C)c2c(Oc3cccc(C(F)(F)F)c3)c(OC)cc(NC(C)CCCNO)c2n1 (stereo not drawn)
IC50 [1]: ~10.4 µM

CCN(CC)CCCC(C)Nc1cc(OC)cc2c(C)ccnc12 (stereo not drawn)
IC50 [3]: 3 to 5 µM

C=CC1CN2CCC1CC2[C@H](O)c1ccnc2ccccc12 (stereo partly drawn)
IC50 [1]: 18 µM

C=CC1CN2CCC1CC2[C@@H](O)c1ccnc2ccc(OC)cc12 (stereo partly drawn)
IC50 [1]: 3 µM

Oc1ccc(Cl)c2cccnc12
Toxicity (note in the 22L-infected N2a cells column) [8]: Toxic @ 10 μM

C=CC1CN2CCC1CC2[C@@H](O)c1ccnc2ccccc12 (stereo partly drawn)
IC50 [1]: 6 µM

CCC1CN2CCC1CC2[C@@H](O)c1ccnc2ccc(OC)cc12 (stereo partly drawn)
Toxicity (note in the RML-infected N2a cells column) [9]: (toxic @ μM)

COc1cc(NC(C)CCCN)c2nccc(C)c2c1Oc1cccc(C(F)(F)F)c1 (stereo not drawn) [compound 3]
IC50 [3]: 0.508 µM and 1.2 µM
IC50 [1]: 0.609 µM and 0.54 µM
inhibition of fibrillogenesis of amyloid peptide, gel assay (in words) [6]: inhibited fibrillogenesis
IC50 [2]: 23.1 µM
IC50 ([4]; thioflavin T, 25° C.): ~34.6 µM and 34.6 µM
disassociation of amyloid fibrils, gel assay (in words) [7]: increase of monomeric amyloid peptide

COc1cc(NC(C)CCCN)c2ncccc2c1 (stereo not drawn)
IC50 [1]: < 10 µM

C=CC1CN2CCC1CC2C(O)c1ccnc2ccc(OC)cc12 (stereo not drawn)
IC50 [3]: 3 to 5 µM

COc1cc(NCCCCCNC(C)C)c2nccc(C)c2c1
IC50 [2]: ~15.8 µM

COc1cc(C)c2c(Oc3cccc(C(F)(F)F)c3)c(OC)cc(NC(C)CCCN)c2n1 (racemic) [tafenoquine, (±)-8-[(4-amino-1-methylbutyl)amino]-2,6-dimethoxy-4-methyl-5-(3-trifluoromethylphenoxy)quinoline]
IC50 [3]: > 2.2 µM
IC50 [1]: 0.716 µM and 0.72 µM
IC50 ([4]; thioflavin T, 25° C.): 11.2 µM
inhibition of Sup-NM amyloid polymerization (in words) ([4]; concentrations up to 200 μg/mL): nearly complete inhibition
IC50 ([5]; Saccharomyces cerevisiae, 24 h, read-out: IC50 for inhibition of induction of PSI+): 4.5 µg/mL (≈ 9.71 µM)
